Data published in publication PMC11672400, “Synthesis, Spectroscopic Characterization, Structural Analysis, and Evaluation of Anti-Tumor, Antimicrobial, and Antibiofilm Activities of Halogenoaminopyrazoles Derivatives” (Antibiotics, 2024).
Converted amounts (≈) assume the structure as drawn. Like-named read-outs stand apart in the source and are kept apart here.

Tests used:
[1] = MTT cell viability / cytotoxicity on normal fibroblasts; format: cell-based, mouse; settings: mouse
From the text: Merck chemicals were utilized.
Untreated cells were used as control, considered 100% viable cells.

[2] = test system: HEp-2 epithelial tumor cells; assay: MTT cell viability / anti-tumor activity; settings: Homo sapiens, read-out: Cell viability on Hep2 cells (%)
Method: The cytotoxicity of the halogenoaminopyrazole derivatives 4a–f and 5a–e was tested on L929 mouse fibroblast cells, and their anti-tumor activity was evaluated on the human carcinoma epithelial cell line HEp-2. The experiments were performed in a concentration range of 3.1–50 μg/mL.
The MTT test was used, 3-(4,5-dimethylthiazol-2-yl)-2,5-diphenyl tetrazolium bromide), which is reduced to insoluble purple-blue formazan crystals precipitated by living cells. Cell viability assessed using the MTT assay reflects the activity of mitochondrial enzymes in treated cells compared to the control culture of untreated cells.
To assess the biocompatibility of the substances, a stable mouse fibroblast cell line, NCTC (clone 929), was grown in minimal essential medium (MEM) with 10% fetal bovine serum (FBS) and 2 mM L-glutamine, along with 100 U/mL penicillin, 100 µg/mL streptomycin, and 500 µg/mL neomycin. The concentration of the compounds used was 0.06 g/2 mL DMSO.
In cytotoxicity experiments, compound solutions were utilized at concentrations of 3.1 μg/mL, 6.25 μg/mL, 12.5 μg/mL, 25 μg/mL, and 50 μg/mL. The NCTC cell suspension was placed into 96-well culture plates with a concentration of 4 × 10^4 cells/mL and incubated at 37 °C for 24 h in a 5% CO2 humidified atmosphere. The compounds under study were placed in sets of three at varying concentrations ranging from 3.1 μg/mL to 50 μg/mL in every well, and the plates were then kept under standard conditions for 48 h. Cell viability was determined through the utilization of the MTT assay. Next, the MTT solution was removed, then isopropanol was added to solubilize the formazan crystals. The colored solution was then measured for absorbance at 570 nm using a Berthold Technologies, LB 940 microplate reader (Bad Wildbad, Germany). The outcomes were determined based on Formula (1) while considering that the recorded optical density is directly related to the number of viable cells in the cell culture being examined [35, 36]. % cell viability = (OD sample/OD control) × 100%(1)
For each tested compound, a graph representing percentage cell viability versus concentrations (in the range 3.1–50 µg/mL) was obtained. Then, the IC50 value was calculated by using ED50 plus V1.0 software.

[3] = test system: Pseudomonas aeruginosa ATCC27853; assay: MIC by serial microdilution in liquid medium; format: cell-based; settings: 24 h, 37 °C; for MIC: Pseudomonas aeruginosa, ATCC27853, read-out: Minimum inhibitory concentration, Pseudomonas aeruginosa ATCC27853
Method: (§1) The minimum inhibitory concentrations (MIC) were determined by the serial microdilution method in a liquid medium (Tryptone Soy Broth), on 96-well plates. Serial binary dilutions of the compound stock solution (10 mg/mL in DMSO) were carried out in 90 µL of culture medium and 10 µL of 10^6 CFU/mL (Colony Forming Units) microbial suspension. Each test included a positive control (wells with culture medium and microbial suspension) and a negative control for medium sterility. After incubation at 37 °C for 24 h the plates were visually examined, and optical density was measured at 620 nm. […] The MIC value (µg/mL) for the chemical compound was determined by the concentration in the final well without bacterial growth. All experiments were performed in triplicate.

[4] = test system: Enterococcus faecalis ATCC29212; assay: MIC by serial microdilution in liquid medium; format: cell-based; settings: 24 h, 37 °C; for MIC: Enterococcus faecalis, ATCC29212, read-out: Minimum inhibitory concentration, Enterococcus faecalis ATCC29212
Method: as §1

[5] = test system: Escherichia coli ATCC25922; assay: MIC by serial microdilution in liquid medium; format: cell-based; settings: 24 h, 37 °C; for MIC: Escherichia coli, ATCC25922, read-out: Minimum inhibitory concentration, Escherichia coli ATCC25922
Method: as §1

[6] = test system: Staphylococcus aureus ATCC25923; assay: MIC by serial microdilution in liquid medium; format: cell-based; settings: 24 h, 37 °C; for MIC: Staphylococcus aureus, ATCC25923, read-out: Minimum inhibitory concentration, Staphylococcus aureus ATCC25923
Method: as §1

[7] = test system: Pseudomonas aeruginosa ATCC27853; assay: Antibiofilm assay (crystal violet), MBIC; format: cell-based; settings: 37 °C; for minimal effective concentration: Pseudomonas aeruginosa, ATCC27853, 24 h, read-out: Minimum biofilm inhibition concentration (MBIC), Pseudomonas aeruginosa ATCC27853
Method: (§2) Microorganisms were grown in 96-well plates filled with nutrient broth along with test substances, followed by incubation at 37 °C for 24 h. Plates were cleaned and rinsed thrice using SPW solution (sterile physiological water). After that, the attached cells were treated with 110 μL of methanol for 5 min, and then the methanol was removed by turning it upside down. […] Once stained, the solution was removed, and the plates were washed with running tap water. […] The antimicrobial/antibiofilm activity of the compounds was evaluated against two antibiotics, commercial formulations of metronidazole and nitrofurantoin.

[8] = test system: Enterococcus faecalis ATCC29212; assay: Antibiofilm assay (crystal violet), MBIC; format: cell-based; settings: 37 °C; for minimal effective concentration: Enterococcus faecalis, ATCC29212, 24 h, read-out: Minimum biofilm inhibition concentration (MBIC), Enterococcus faecalis ATCC29212
Method: as §2

[9] = test system: Escherichia coli ATCC25922; assay: Antibiofilm assay (crystal violet), MBIC; format: cell-based; settings: 37 °C; for minimal effective concentration: Escherichia coli, ATCC25922, 24 h, read-out: Minimum biofilm inhibition concentration (MBIC), Escherichia coli ATCC25922
Method: as §2

[10] = test system: Staphylococcus aureus ATCC25923; assay: Antibiofilm assay (crystal violet), MBIC; format: cell-based; settings: Staphylococcus aureus, ATCC25923; 24 h, 37 °C; read-out: Minimum biofilm inhibition concentration (MBIC), Staphylococcus aureus ATCC25923
Method: as §2

[11] = test system: Pseudomonas aeruginosa ATCC27853; assay: Qualitative evaluation of antimicrobial activity (inhibition zone, spot on agar); format: cell-based; parameters: key: (+) inhibited bacterial growth; (-) did not inhibit bacterial growth; settings: 0.06 g/2 mL DMSO, 5 µL spot
Method: (§3) For testing the antimicrobial/antibiofilm activity, the concentration of the studied compounds was identical to 0.06 g/2 mL DMSO. 0.5 Standard McFarland suspension was used, which was inoculated onto Mueller Hinton agar plates, (Remel, Lenexa, KS, USA), 5 µL of each compound was spotted and incubated overnight at 37 °C. Antimicrobial activity was observed as zones of inhibition formed around the spot.

[12] = test system: Enterococcus faecalis ATCC29212; assay: as above; format: cell-based; parameters: key: (+) inhibited bacterial growth; (-) did not inhibit bacterial growth; settings: 0.06 g/2 mL DMSO, 5 µL spot
Method: as §3

[13] = test system: Escherichia coli ATCC25922; assay: as above; format: cell-based; parameters: key: (+) inhibited bacterial growth; (-) did not inhibit bacterial growth; settings: 0.06 g/2 mL DMSO, 5 µL spot
Method: as §3

[14] = test system: Staphylococcus aureus ATCC25923; assay: as above; format: cell-based; parameters: key: (+) inhibited bacterial growth; (-) did not inhibit bacterial growth; settings: 0.06 g/2 mL DMSO, 5 µL spot
Method: as §3

[15] = read-out: Cell viability on NCTC cells (%)
[16] = NCTC clone 929 (L929) mouse fibroblast cells

SMILES: Cc1nn(CN(Cn2nc(C)c([N+](=O)[O-])c2C)c2ccc(Br)cc2)c(C)c1[N+](=O)[O-] [5c, N,N-bis-[(3,5-dimetyl-4-nitro-1H-pyrazol-1-yl)-methyl]-4-bromoaniline]
- melting point: 133 to 135 °C
- viability at 24 h, 3.1 µg/mL [1, 15]: 105 ± 1.96%
- viability at 48 h, 3.1 µg/mL [1, 15]: 96.7 ± 2.96%
- viability at 24 h, 6.25 µg/mL [1, 15]: 106 ± 2.3%
- viability at 48 h, 6.25 µg/mL [1, 15]: 101 ± 3.63%
- viability at 24 h, 12.5 µg/mL [1, 15]: 106 ± 3.74%
- viability at 48 h, 12.5 µg/mL [1, 15]: 97.4 ± 1.99%
- viability at 24 h, 25 µg/mL [1, 15]: 105 ± 1.88%
- viability at 48 h, 25 µg/mL [1, 15]: 96.6 ± 2.02%
- viability at 24 h, 50 µg/mL [1, 15]: 84 ± 2.12%
- viability at 48 h, 50 µg/mL [1, 15]: 68 ± 1.61%
- viability at 3.1 µg/mL ([2]; HEp-2, 24 h): 112 ± 2.32%
- viability at 6.25 µg/mL ([2]; HEp-2, 24 h): 114 ± 2.18%
- viability at 12.5 µg/mL ([2]; HEp-2, 24 h): 117 ± 2.83%
- viability at 25 µg/mL ([2]; HEp-2, 24 h): 113 ± 1.52%
- viability at 50 µg/mL ([2]; HEp-2, 24 h): 102 ± 2.71%
- viability at 3.1 µg/mL ([2]; HEp-2, 48 h): 96.9 ± 1.38%
- viability at 6.25 µg/mL ([2]; HEp-2, 48 h): 96.5 ± 1.58%
- viability at 12.5 µg/mL ([2]; HEp-2, 48 h): 89.2 ± 2.02%
- viability at 25 µg/mL ([2]; HEp-2, 48 h): 65.3 ± 2.09%
- viability at 50 µg/mL ([2]; HEp-2, 48 h): 50.2 ± 2.02%
- Minimum inhibitory concentration, Pseudomonas aeruginosa ATCC27853 [3]: 3750 ± 0.51 µg/mL (≈ 7.84 mM)
- MIC [3]: 3750 µg/mL (≈ 7.84 mM)
- Minimum inhibitory concentration, Enterococcus faecalis ATCC29212 [4]: 3750 ± 0.08 µg/mL (≈ 7.84 mM)
- MIC [4]: 3750 µg/mL (≈ 7.84 mM)
- Minimum inhibitory concentration, Escherichia coli ATCC25922 [5]: 3750 ± 0.54 µg/mL (≈ 7.84 mM)
- MIC [5]: 3750 µg/mL (≈ 7.84 mM)
- Minimum inhibitory concentration, Staphylococcus aureus ATCC25923 [6]: 3750 ± 0.04 µg/mL (≈ 7.84 mM)
- MIC [6]: 3750 µg/mL (≈ 7.84 mM)
- Minimum biofilm inhibition concentration (MBIC), Pseudomonas aeruginosa ATCC27853 ([7]; 24 h): 1870 ± 0.53 µg/mL
- minimal effective concentration [7]: 1870 µg/mL
- Minimum biofilm inhibition concentration (MBIC), Enterococcus faecalis ATCC29212 ([8]; 24 h): 1870 ± 0.06 µg/mL
- minimal effective concentration [8]: 1870 µg/mL
- Minimum biofilm inhibition concentration (MBIC), Escherichia coli ATCC25922 ([9]; 24 h): 3750 ± 0.48 µg/mL
- minimal effective concentration [9]: 3750 µg/mL
- minimal effective concentration [10]: 1870 ± 0.15 µg/mL
- Qualitative antimicrobial activity, Pseudomonas aeruginosa ATCC27853 [11]: -
- Qualitative antimicrobial activity, Enterococcus faecalis ATCC29212 [12]: -
- Qualitative antimicrobial activity, Escherichia coli ATCC25922 [13]: -
- Qualitative antimicrobial activity, Staphylococcus aureus ATCC25923 [14]: -

SMILES: Cc1nn(CNc2ccc(Br)cc2)c(C)c1[N+](=O)[O-] [4c, N-[(3,5-dimetyl-4-nitro-1H-pyrazol-1-yl)-methyl]-4-bromoaniline]
- melting point: 118 to 120 °C
- viability at 24 h, 3.1 µg/mL [1, 16]: 99.2 ± 0.97%
- viability at 48 h, 3.1 µg/mL [1, 16]: 99.67 ± 0.71%
- viability at 24 h, 6.25 µg/mL [1, 16]: 97.1 ± 3.04%
- viability at 48 h, 6.25 µg/mL [1, 16]: 98.8 ± 1.92%
- viability at 24 h, 12.5 µg/mL [1, 16]: 95.6 ± 0.62%
- viability at 48 h, 12.5 µg/mL [1, 16]: 97.2 ± 3.5%
- viability at 24 h, 25 µg/mL [1, 16]: 95.5 ± 2.14%
- viability at 48 h, 25 µg/mL [1, 16]: 95.6 ± 2.93%
- viability at 24 h, 50 µg/mL [1, 16]: 91.1 ± 3.04%
- viability at 48 h, 50 µg/mL [1, 16]: 81.5 ± 3.26%
- viability at 3.1 µg/mL ([2]; HEp-2, 24 h): 101 ± 2.04%
- viability at 6.25 µg/mL ([2]; HEp-2, 24 h): 103 ± 2.31%
- viability at 12.5 µg/mL ([2]; HEp-2, 24 h): 100 ± 3.15%
- viability at 25 µg/mL ([2]; HEp-2, 24 h): 98.7 ± 1.83%
- viability at 50 µg/mL ([2]; HEp-2, 24 h): 92.64 ± 0.9%
- viability at 3.1 µg/mL ([2]; HEp-2, 48 h): 116 ± 2.55%
- viability at 6.25 µg/mL ([2]; HEp-2, 48 h): 104.2 ± 0.88%
- viability at 12.5 µg/mL ([2]; HEp-2, 48 h): 99.6 ± 2.32%
- viability at 25 µg/mL ([2]; HEp-2, 48 h): 82.6 ± 3.28%
- viability at 50 µg/mL ([2]; HEp-2, 48 h): 70.2 ± 1.91%
- MIC [3]: 930 ± 1.08 µg/mL (≈ 2.86 mM)
- MIC [4]: 930 ± 0.03 µg/mL (≈ 2.86 mM)
- MIC [5]: 930 ± 1.05 µg/mL (≈ 2.86 mM)
- MIC [6]: 930 ± 0.04 µg/mL (≈ 2.86 mM)
- minimal effective concentration [7]: 930 ± 0.52 µg/mL
- minimal effective concentration [8]: 930 ± 1.09 µg/mL
- minimal effective concentration [9]: 930 ± 0.11 µg/mL
- minimal effective concentration [10]: 930 ± 0.06 µg/mL
- Qualitative antimicrobial activity, Pseudomonas aeruginosa ATCC27853 [11]: -
- Qualitative antimicrobial activity, Enterococcus faecalis ATCC29212 [12]: -
- Qualitative antimicrobial activity, Escherichia coli ATCC25922 [13]: -
- Qualitative antimicrobial activity, Staphylococcus aureus ATCC25923 [14]: -
